Results taken from PubChem BioAssay (NCI).
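Values below derive from 48-hour exposures of cells grown in 96-well plates, with endpoints linearly interpolated between the two concentrations bracketing the appropriate inhibition level. GI50 marks 50% less growth. The concentration for full growth arrest is given as TGI.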

Assays:
Experiment in all cases: NCI-60 cell line screen, 48 h
[1] = system: IGROV1 ovarian
[2] = system: M14 melanoma
[3] = system: HCT-15 colon
[4] = system: CAKI-1 renal
[5] = system: RPMI-8226 leukemia
[6] = system: RXF 393 renal
[7] = system: ACHN renal
[8] = system: MDA-MB-231 breast
[9] = system: LOX IMVI melanoma
[10] = system: SNB-19 CNS
[11] = system: SK-OV-3 ovarian
[12] = system: CCRF-CEM leukemia
[13] = system: SK-MEL-28 melanoma
[14] = system: NCI-H226 lung
[15] = system: HCT-116 colon
[16] = system: K-562 leukemia
[17] = system: MDA-MB-435
[18] = system: HS 578T breast
[19] = system: HOP-62 NSCLC
[20] = system: PC-3 prostate
[21] = system: EKVX NSCLC
[22] = system: HT29 colon
[23] = system: SW-620 colon
[24] = system: OVCAR-8 ovarian
[25] = system: SF-539 CNS
[26] = system: SK-MEL-2 melanoma
[27] = system: T-47D breast
[28] = system: A498 renal
[29] = system: 786-0 renal

In the case of `COc1ccc(C(=O)N/N=C/c2ccc(O)cc2O)cc1Nc1ccnc(C(F)(F)F)c1`, the GI50 [1] is reported as 0.575 µM, the TGI [1] is reported as 23.4 µM and the GI50 [2] is reported as 0.731 µM. For the same molecule, the TGI [2] was 5.55 µM, the GI50 [3] was 2.45 µM and the TGI [3] was greater than 100 µM. It also gave a GI50 [4] of 0.984 µM, a TGI [4] of 15.2 µM and a GI50 [5] of 1.16 µM. It also gave a TGI [5] of 30.8 µM, a GI50 [6] of 3.3 µM and a TGI [6] of 15.7 µM. For the same molecule, the GI50 [7] was 1.54 µM, the TGI [7] was 35.8 µM and the GI50 [8] was 1.71 µM. The TGI [8] was greater than 84.7 µM, the GI50 [9] was 0.454 µM and the TGI [9] was 16.4 µM. It also gave a GI50 [10] of 0.816 µM, a TGI [10] of 56.7 µM and a GI50 [11] of 0.725 µM. The TGI [11] was 18.8 µM, the GI50 [12] was 0.128 µM and the TGI [12] was 1.44 µM. The GI50 [13] was 0.298 µM, the TGI [13] was 4.98 µM and the GI50 [14] was 1.39 µM. For the same molecule, the TGI [14] was 11.6 µM, the GI50 [15] was 0.354 µM and the TGI [15] was 8.77 µM. For the same molecule, the GI50 [16] was 0.485 µM, the TGI [16] was greater than 35.6 µM and the GI50 [17] was 0.507 µM. It also gave a TGI [17] of 21.1 µM, a GI50 [18] of 1.01 µM and a TGI [18] of 15.3 µM. It also gave a GI50 [19] of 0.495 µM, a TGI [19] of 12.7 µM and a GI50 [20] of 0.771 µM. The TGI [20] was 24.6 µM, the GI50 [21] was 0.482 µM and the TGI [21] was 27.9 µM. The GI50 [22] was 3.6 µM, the TGI [22] was greater than 69.2 µM and the GI50 [23] was 1.16 µM. It also gave a TGI [23] of 24.2 µM, a GI50 [24] of 0.919 µM and a TGI [24] greater than 71.2 µM. The GI50 [25] was 0.404 µM, the TGI [25] was 7.78 µM and the GI50 [26] was 9.23 µM. For the same molecule, the TGI [26] was 30.6 µM, the GI50 [27] was 0.688 µM and the TGI [27] was 15 µM. It also gave a GI50 [28] of 0.193 µM, a TGI [28] of 9.33 µM and a GI50 [29] of 0.998 µM. For the same molecule, the TGI [29] was 9.62 µM.
